Values quoted from earlier work in US20250339420A1, “ANILINE-DERIVATIVE-CONTAINING EXTERNAL PREPARATION FOR SKIN” (KINOPHARMA, INC., priority 2022, published 2025).

Legend:
[1] = tested on: E6 and E7 genes of human papillomavirus (HPV)

Fc1ccc(N2CCCCC2)c(NC(=S)c2ccncc2)c1 [Compound I-a, N-[5-fluoro-2-(1-piperidinyl)phenyl]-4-pyridinethioamide]
effect on p53 gene (p53 gene): stabilizes p53 gene | expression of E6 and E7 genes of human papillomavirus (HPV) [1]: suppresses expression | antiviral activity against papillomavirus (papillomavirus): exhibits antiviral activity
